Data published in PMC6416309, “Crystal structures of thiamine monophosphate kinase from Acinetobacter baumannii in complex with substrates and products” (Scientific Reports, 2019).

Assays:
[1] = target: T1, AbThiL (ThiL, thiamine monophosphate kinase) (Acinetobacter baumannii, UniProt A0A0D5YC82); test: X-ray crystallography (co-crystal), […] A monoclinic and […] A orthorhombic; assay type: binding; details: 5 mM ADP/TPP/MgCl2, paper assigns 5CM7, 5D9U and 6MFM to the two crystal forms inconsistently
T1 construct: non-cleavable N-terminal His6-tag (vector pBG1861), expressed in E. coli Rosetta BL21(DE3)R3; modelled Met1/Ala2 to Phe304/C-terminal Ala305; homodimer, active site at dimer interface
T1 sequence (A0A0D5YC82 1-305): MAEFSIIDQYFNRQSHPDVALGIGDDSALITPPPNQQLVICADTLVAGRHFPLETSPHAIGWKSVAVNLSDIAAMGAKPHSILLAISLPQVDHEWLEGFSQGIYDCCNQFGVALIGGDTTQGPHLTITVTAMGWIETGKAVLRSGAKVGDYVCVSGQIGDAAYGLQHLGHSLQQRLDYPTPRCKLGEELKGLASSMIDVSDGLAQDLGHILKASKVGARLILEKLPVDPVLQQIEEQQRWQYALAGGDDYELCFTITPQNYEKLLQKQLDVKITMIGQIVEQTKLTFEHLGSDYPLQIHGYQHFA

[2] = target: T1, AbThiL (ThiL, thiamine monophosphate kinase); test: X-ray crystallography (co-crystal), […] A; assay type: binding; details: AMPPNP alone, 5 mM AMPPNP/MgCl2, NaBr; ATP site; also with TMP in 5DD7
[3] = target: T1, AbThiL (ThiL, thiamine monophosphate kinase); test: X-ray crystallography (overnight soak of AMPPNP co-crystals), […] A; assay type: binding; details: ternary complex with AMPPNP; Mg2+; 5 mM AMPPNP/TMP/MgCl2; K/Na-tartrate, HEPES pH 7.5; active site at dimer interface
[4] = target: the molecule itself; test: crystal structure; AbThiL co-crystallised or soaked with AMPPNP, AMPPNP/TMP or ADP/TPP and MgCl2; orthorhombic (P21212) and monoclinic (P21) crystal forms; sitting drops at 287 K

Molecule: Nc1ncnc2c1ncn2[C@@H]1O[C@H](COP(=O)(O)OP(=O)(O)O)[C@@H](O)[C@H]1O [ADP]
- X-ray crystallography (co-crystal), 1.55 A monoclinic and 1.90 A orthorhombic ([1]; ternary complex with TPP, ATP/ADP site): with the products ADP/TDP (orthorhombic and monoclinic)

Molecule: Nc1ncnc2c1ncn2[C@@H]1O[C@H](COP(=O)(O)OP(=O)(O)NP(=O)(O)O)[C@@H](O)[C@H]1O [AMPPNP]
- X-ray crystallography (co-crystal), 1.75 A [2]: AbThiL in complex with AMPPNP alone (orthorhombic)

Molecule: Cc1ncc(C[n+]2csc(CCOP(=O)(O)O)c2C)c(N)n1 [TMP]
- X-ray crystallography (overnight soak of AMPPNP co-crystals), 1.70 A [3]: AbThiL in complex with AMPPNP alone (orthorhombic), the substrate analogs AMPPNP/TMP (orthorhombic)

Molecule: Cc1ncc(C[n+]2csc(CCOP(=O)(O)OP(=O)(O)O)c2C)c(N)n1 [TPP]
- X-ray crystallography (co-crystal), 1.55 A monoclinic and 1.90 A orthorhombic ([1]; ternary complex with ADP, TMP/TPP site): with the products ADP/TDP (orthorhombic and monoclinic)

B1: Thiamine monophosphate kinase (ThiL) from Acinetobacter baumannii (enzyme, UniProt A0A0D5YC82 1-305, looked up)
chain: T1 sequence (A0A0D5YC82 1-305)
notes: Thiamine monophosphate kinase (ThiL), Acinetobacter baumannii strain AB5075-UW, gene amplified from genomic DNA; The vector pBG1861 provides a non-cleavable N-terminal His6-tag; also called AbThiL; not shown: His6, N-terminal, kept
- stoichiometry N [4]: 2
